These results are taken from US6838450B2, “Drug complex” (Daiichi Pharmaceutical Co., LTD, priority 1996, dated 2005).

The subject of series [1] is mouse fibrosarcoma Meth A cells. Description: Antitumor activity, Meth A tumor-bearing mice, single administration. It counts as in vivo. The settings on record: for Inhibition rate (%): Table 3; for antitumor activity (in words) / effective dose-range: single administration, compared to the drug compound, per se. Here is the method: Meth A tumor-bearing mice (6 mice per group) were prepared according to a similar manner to that of Example 11 and the antitumor activity was compared to that obtained by single administration of the drug complexes of Examples 8 and 9 once on day 7. As a result, the degree of the antitumor activity was as follows: (Polysaccharide derivative)-Gly-Gly-Phe-Gly-NH—A′>(Polysaccharide derivative)-Gly-Gly-Gly-Phe-NH—A′>the drug compound, per se.
Meth A tumor-bearing mice (6 mice per group) were prepared according to a similar manner to that of Example 11, and the antitumor activity of the drug complex of Example 41 was examined in the cases of single administration in a similar manner to that of Example 12, and its antitumor activity was compared to that of the drug compound, per se. […]

For series [2] the test system is unchanged. Described as above. The series is classed as in vivo.
Series [3] shares this test system. Description: Antitumor activity, Meth A tumor-bearing mice, injection every 4 days 4 times. The settings on record: for antitumor activity (in words): compared to the drug compound, per se; for Inhibition rate (%): tail vein every 4 days from day 7, tumor weight day 21. As for the experimental part:
Meth A tumor-bearing mice were prepared (7 mice per group) by subcutaneously transplanting 1×10^6 mouse fibrosarcoma Meth A cells into the right inguinal regions of BALB/c male mice (7-week old). On day 7, the drug complex of Example 9 dissolved in distilled water for injection was injected in the tail vein of the Meth A tumor-bearing mice every 4 days 4 times. On day 21 after the transplantation, tumor masses were excised and weighed to calculate the inhibition rate of tumor growth according to the following equation: inhibition rate of tumor growth (%)=[1−(average tumor weight of the group administered with the test sample/average tumor weight of control group)]×100.

Series [4] relates to SC-6 human gastric tumor. Description: Antitumor activity, SC-6 tumor-bearing nude mice. The settings on record: for Inhibition rate (%) / Numbers of died mice/mice used: single intravenous administration on day 27, nude mice. It counts as in vivo, mouse. Here is the method:
(§1) SC-6 tumor-bearing nude mice (5 mice per group) were prepared by subcutaneously transplanting a piece of SC-6 human gastric tumor block into the right inguinal regions of nude mice (BALB/c-nu/nu, male).

The subject of series [5] is Human lung cancer QG-90. Description: Antitumor activity, human lung cancer QG-90-bearing nude mice. The series is classed as in vivo, mouse. The settings on record: for Inhibition rate (%) / Numbers of died mice/mice used: single intravenous administration on day 16, nude mice. Here is the method: as §1
Human lung cancer QG-90-bearing nude mice (5 mice per group) were prepared according to a similar manner to that of Example 57.

A short description of series [6]: Pharmacokinetics in Meth A tumor-bearing mice. The settings on record: single administration, 10 mg/kg calculated as the drug compound; FIG. 24. The series is classed as in vivo, mouse.
The mark [7] stands for this setting: 5 mg/kg calculated based on the drug compound, single administration on day 7.
Where [8] appears, read: Example 60, 20 mg/kg calculated based on the drug compound, single administration, 20 mg/kg.
The mark [9] stands for this setting: Example 60, 40 mg/kg calculated based on the drug compound, single administration.
[10] abbreviates: Example 60, 80 mg/kg calculated based on the drug compound, single administration.
The mark [11] stands for this setting: Example 60, 100 mg/kg calculated based on the drug compound, single administration.
Setting [12] is: 2 mg/kg calculated based on the drug compound.
Setting [13] is: 8 mg/kg calculated based on the drug compound.
Where [14] appears, read: single intravenous administration, compared to the drug compound, per se.
Where [15] appears, read: 1.75 mg/kg calculated based on the drug compound.
[16] abbreviates: 7 mg/kg calculated based on the drug compound.

Counter-ions that a name gives are not always drawn. Peptide text beside a SMILES is read from it.

As to “carboxymethyldextran polyalcohol-Gly-Gly-Gly-Phe-NH—A′ (A—NH2=DX-8951) [Example 8]”, the “Inhibition rate (%)” value is 76% in series [1] (setting [7]) and 85% in series [1] (10 mg/kg calculated based on the drug compound, single administration on day 7).

For the compound “carboxymethyldextran polyalcohol-Gly-Gly-Gly-Phe-NH—A′ (A—NH2=DX-8951) [Example 46]”, the “antitumor activity (in words)” value in series [1] was “high”. The effective dose-range entry in series [1] is listed as “broader”. In addition, the “Inhibition rate (%)” value is listed as 75% in series [2] (setting [8]), 82% in series [2] (setting [9]), 92% in series [2] (setting [10]) and 94% in series [2] (setting [11]).

For `CC[C@@]1(O)C(=O)OCc2c1cc1n(c2=O)Cc2c-1nc1cc(F)c(C)c3c1c2[C@@H](NC(=O)CNC(=O)[C@H](Cc1ccccc1)NC(=O)CNC(=O)CN)CC3` [3′-N-(Gly-Gly-Phe-Gly)-NH—A (A—NH2=DX-8951) trifluoroacetic acid salt] (HELM PEPTIDE1{G.G.F.G.[CC[C@@]1(O)C(=O)OCc2c1cc1n(c2=O)Cc2c-1nc1cc(F)c(C)c3c1c2[C@@H](N[*:1])CC3]}$$$$V2.0), the “antitumor activity (in words)” value in series [3] (every 4 days 4 times) is “not effective”.

As for `CC[C@@]1(O)C(=O)OCc2c1cc1n(c2=O)Cc2c-1nc1cc(F)c(C)c3c1c2[C@@H](N)CC3` [DX-8951, (1S,9S)-1-amino-9-ethyl-5-fluoro-2,3-dihydro-9-hydroxy-4-methyl-1H,12H-benzo[de]pyrano[3′,4′:6,7]indolizino[1,2-b]quinoline-10,13(9H,15H)-dione, reference compound], the “Inhibition rate (%)” value in series [1] (20 mg/kg single administration on day 7, drug compound = DX-8951) stood at 59%; in series [1] (60 mg/kg single administration on day 7, drug compound = DX-8951), 77%.

On to “α-methylcarboxymethyldextran polyalcohol-Gly-Gly-Gly-Phe-NH—A′ (A—NH2=DX-8951) [Example 47]”, for which, in series [1], the “antitumor activity (in words)” value is recorded as “high”. In addition, in series [1], the effective dose-range entry is recorded as “broader”. In addition, the “Inhibition rate (%)” value in series [2] (Example 60, 20 mg/kg calculated based on the drug compound, single administration) is reported as 75%; in series [2] (setting [9]) it was 97%; in series [2] (setting [10]), 94%; in series [2] (setting [11]) it was 96%.

For the compound “carboxymethyldextran polyalcohol-Gly-Gly-Phe-Gly-DXR [Example 44]”, in series [1], the “antitumor activity (in words)” value is given as “remarkably enhanced”. In addition, the effective dose-range result in series [1] is listed as “broader”. Further, the “Inhibition rate (%)” value was 76% in series [2] (Example 61, 5 mg/kg calculated based on the drug compound, single administration); 87% in series [2] (Example 61, 10 mg/kg calculated based on the drug compound, single administration); 96% in series [2] (Example 61, 20 mg/kg calculated based on the drug compound, single administration); 96% in series [2] (Example 61, 40 mg/kg calculated based on the drug compound, single administration).

On to “carboxymethyldextran polyalcohol-Gly-Gly-Phe-Gly-NH—A′ (A—NH2=DX-8951) [Example 15]”, for which the entries for the “antitumor activity (in words)” value in series [1], in series [4] (setting [14]) and in series [5] (setting [14]) were “remarkably enhanced”, “higher” and “remarkably enhanced”, respectively. In addition, the effective dose-range entry in series [1] and in series [5] (setting [14]) was “broader” each time. Besides, the “Inhibition rate (%)” value was 71% in series [4] (setting [12]); 100% in series [4] (setting [13]); 97% in series [5] (setting [15]); 98% in series [5] (setting [16]); 83% in series [2] (Example 56, 1.25 mg/kg calculated based on the drug compound, single administration); 95% in series [2] (Example 56, 2.5 mg/kg calculated based on the drug compound, single administration). Also, the “Inhibition rate (%)” value is on record as 99% in series [2] (Example 56, 5 mg/kg calculated based on the drug compound, single administration) and 100% in series [2] (Example 56, 10 mg/kg calculated based on the drug compound, single administration). Further, the “Numbers of died mice/mice used” value in series [4] (setting [12]), in series [4] (setting [13]), in series [5] (setting [15]) and in series [5] (setting [16]) was 0/5 each time. Moreover, the “death due to toxicity” value in series [4] (single intravenous administration) is “no death”. Moreover, the “distribution in tumor tissues” value in series [6] was “high”. Moreover, in series [6], the “retention of blood level” value is reported as “extremely long”.

Regarding “carboxymethyldextran polyalcohol-Gly-Gly-Phe-Gly-NH—A′ (A—NH2=DX-8951) [Example 9]”, the “Inhibition rate (%)” value in series [3] (dose 0.35 mg/kg × 4 calculated based on the drug compound) is listed as 41%; in series [3] (dose 0.7 mg/kg × 4 calculated based on the drug compound), 59%; in series [3] (dose 1.4 mg/kg × 4 calculated based on the drug compound), 94%; in series [1] (setting [7]) it was 98%; in series [2] (Table 3, 2.5 mg/kg calculated based on the drug compound, single administration on day 7), 87%. For the same compound, the “toxicity (weight loss)” value in series [3] (every 4 days 4 times) is recorded as “no toxicity”. The “antitumor activity (in words)” value in series [3] (every 4 days 4 times) is reported as “remarkably enhanced”.

For “carboxymethyldextran polyalcohol-Gly-Gly-Phe-Gly-NH—A′ (A—NH2=DW-8089) [Example 41]”, the “antitumor activity (in words)” value in series [1] is “remarkably enhanced”. Further, the effective dose-range result in series [1] is reported as “broader”. The “Inhibition rate (%)” value in series [2] (Example 59, 3.125 mg/kg calculated based on the drug compound, single administration) was 61%; in series [2] (Example 59, 6.25 mg/kg calculated based on the drug compound, single administration), 81%; in series [2] (Example 59, 12.5 mg/kg calculated based on the drug compound, single administration) it was 95%; in series [2] (Example 59, 25 mg/kg calculated based on the drug compound, single administration), 99%.

As for “carboxymethyldextran polyalcohol-Gly-Gly-Gly-Phe-NH—A′ (A—NH2=DX-8951) [Example 29]”, the “antitumor activity (in words)” value in series [1] was “high”. For the same compound, the effective dose-range result in series [1] is “broader”. In addition, the “Inhibition rate (%)” value in series [2] (Example 60, 5 mg/kg calculated based on the drug compound, single administration) is reported as 79%; in series [2] (Example 60, 10 mg/kg calculated based on the drug compound, single administration), 89%; in series [2] (setting [8]), 99%; in series [2] (Example 60, 30 mg/kg calculated based on the drug compound, single administration) it was 99%.
